Test results reported in ChEMBL document CHEMBL5154709, “Tetrazole derivatives bearing benzodiazepine moiety-synthesis and action mode against virulence of Candida albicans” (Eur J Med Chem, 2022).
Converted amounts (≈) assume the structure as drawn. The source made the active and inactive calls. No cut-off for these calls is given here.

Assays:
Candida albicans [1] = experiment: Effect on HSP90 expression in Candida albicans cnb1delta/cnb1delta mutant assessed as decrease in relative expression of HSP90 gene level at 2 ug/ml incubated for 18 hrs by RT-PCR analysis; format: functional; settings: dose 2.0 µg/ml
Candida albicans [2] = experiment: Antifungal against Candida albicans SC5314 biofilm co-cultured with African green monkey Vero cells assessed as lysosomal membrane permeabilization at 16 ug/ml incubated for 18 hrs by PI/acridine orange double staining based confocal laser scanning microscopic analysis; format: functional, organism-based; settings: dose 16.0 µg/ml
Candida albicans [3] = experiment: Effect on HSP90 expression in Candida albicans BWP17 assessed as fold increase in relative expression of HSP90 gene level at 2 ug/ml incubated for 18 hrs in presence of calcium chloride by RT-PCR analysis; format: functional; settings: dose 2.0 µg/ml
Vero = experiment: Cytotoxicity against African green monkey Vero cells at > 64 ug/ml measured after 24 hrs by XTT assay; format: toxicity, cell-based; settings: chlorocebus sabaeus, dose > 64 µg/ml
[4] = Toxicity in Galleria mellonella larvae assessed as melanization of larvae at 16 ug/ml measured every 24 hrs upto 5 days relative to control; settings: 120 h, at 16 µg/mL, time < 5 day
Candida albicans [5] = experiment: Induction of reactive oxygen species generation in Candida albicans BWP17 assessed as increase in ROS level at 16 ug/ml incubated for 18 hrs by DCFH-DA staining based flow cytometric analysis (reference value: 7.2+/- 0.2%); format: functional; settings: dose 16 µg/ml
Candida albicans [6] = experiment: Effect on HSP90 expression in Candida albicans BWP17 assessed as decrease in relative expression of HSP90 gene level at 2 ug/ml incubated for 18 hrs by RT-PCR analysis; format: functional; settings: dose 2.0 µg/ml
Candida albicans [7] = experiment: Antifungal activity against Candida albicans SC5314 assessed as inhibition of fungal growth at 0.125 ug/ml incubated for 18 hrs by M27-A3 based microdilution method relative to control; format: functional
Candida albicans [8] = experiment: Antifungal against Candida albicans cnb1delta/cnb1delta mutant biofilm assessed as oxidative stress by measuring appearance of spherical cells at 16 ug/ml incubated for 18 hrs by PI/acridine orange double staining based confocal laser scanning microscopic analysis; format: functional, organism-based; settings: dose 16.0 µg/ml
Candida albicans [9] = experiment: Induction of apoptosis in Candida albicans SC5314 non-protoplast cells assessed as necrotic cells at 16 ug/ml incubated for 18 hrs by PI/Annexin V staining based flow cytometry assay; format: functional; settings: dose 16 µg/ml
[10] = Toxicity in Galleria mellonella larvae assessed as change in morphology at 16 ug/ml measured after 5 days by Hematoxylin and eosin staining; settings: 120 h, dose 16 µg/ml, time 5 day
Candida albicans [11] = experiment: Antifungal activity against Candida albicans assessed as inhibition of fungal growth measured after 48 hrs by M27-A3 based broth microdilution; format: functional
Candida albicans [12] = experiment: Antifungal activity against Candida albicans SC5314 assessed as inhibition of fungal growth at 2 ug/ml incubated for 48 hrs by M27-A3 based microdilution method relative to control; format: functional
Candida albicans [13] = experiment: Antifungal activity against Candida albicans SC5314 assessed as inhibition of fungal growth at 0.03125 ug/ml incubated for 18 hrs by M27-A3 based microdilution method relative to control; format: functional
Candida albicans [14] = experiment: Antifungal against Candida albicans cnb1delta/cnb1delta mutant biofilm assessed as apoptotic cells by measuring lysosomal membrane permeabilization at 16 ug/ml incubated for 18 hrs by PI/acridine orange double staining based confocal laser scanning microscopic analysis; format: functional, organism-based; settings: dose 16.0 µg/ml
Candida albicans [15] = experiment: Antifungal against Candida albicans SC5314 biofilm co-cultured with African green monkey Vero cells assessed as accidental cell death in pseudohyphal cells by measuring orange fluorescence emission at 16 ug/ml incubated for 18 hrs by PI/acridine orange double staining based confocal laser scanning microscopic analysis; format: functional, organism-based; settings: dose 16.0 µg/ml
[16] = Cytotoxicity against human TR146 cells at more than 64 ug/ml measured after 24 hrs by XTT assay; format: toxicity, cell-based; settings: tr146, 24 h, dose 64 µg/ml
Candida albicans [17] = experiment: Antifungal activity against Candida albicans SC5314 assessed as inhibition of fungal growth at 8 ug/ml incubated for 48 hrs by M27-A3 based microdilution method relative to control; format: functional
Candida albicans [18] = experiment: In vivo antifungal activity against Candida albicans SC5314 infected in Galleria mellonella larvae assessed as prevention of candidiasis at 16 ug/ml administered 1 hr post infection measured after 5 days by Hematoxylin and eosin staining; format: functional, organism-based; settings: dose 16.0 µg/ml, time 5.0 day
Candida albicans [19] = experiment: Effect on HSP90 expression in Candida albicans cnb1delta/CNB1 mutant assessed as decrease in relative expression of HSP90 gene level at 2 ug/ml incubated for 18 hrs by RT-PCR analysis; format: functional; settings: dose 2.0 µg/ml
Candida albicans [20] = experiment: Antifungal activity against Candida albicans SC5314 assessed as inhibition of fungal growth at 4 ug/ml incubated for 18 hrs by M27-A3 based microdilution method relative to control; format: functional
Candida albicans [21] = experiment: Antifungal activity against Candida albicans SC5314 assessed as inhibition of fungal growth at 16 ug/ml incubated for 18 hrs by M27-A3 based microdilution method relative to control; format: functional
Candida albicans [22] = experiment: Downregulation of HSP90 gene expression in Candida albicans cnb1delta/cnb1delta mutant at 2 ug/ml incubated for 6 hrs in presence of calcium chloride by RT-PCR analysis; format: functional; settings: dose 2.0 µg/ml
Candida albicans [23] = experiment: Antifungal activity against Candida albicans SC5314 assessed as inhibition of fungal growth at 0.25 ug/ml incubated for 18 hrs by M27-A3 based microdilution method relative to control; format: functional
Candida tropicalis = experiment: Inhibition of ergosterol biosynthesis in Candida tropicalis C129 assessed as reduction in ergosterol level incubated for 18 hrs by spectrophotometric analysis; format: functional; settings: dose 0.06-32 µg/ml, DDE = dose-dependent effect
Candida albicans [24] = experiment: Inhibition of ergosterol biosynthesis in Candida albicans SC5314 assessed as reduction in ergosterol level incubated for 18 hrs by spectrophotometric analysis; format: functional; settings: dose 0.06-32 µg/ml, DDE = dose-dependent effect
Candida albicans [25] = experiment: Antifungal activity against Candida albicans SC5314 assessed as inhibition of fungal growth at 0.5 ug/ml incubated for 18 hrs by M27-A3 based microdilution method relative to control; format: functional
Candida albicans [26] = experiment: Antifungal activity against Candida albicans SC5314 assessed as inhibition of fungal growth at 2 ug/ml incubated for 18 hrs by M27-A3 based microdilution method relative to control; format: functional
Candida albicans [27] = experiment: Downregulation of HSP90 gene expression in Candida albicans cnb1delta/CNB1 mutant at 2 ug/ml incubated for 6 hrs in presence of calcium chloride by RT-PCR analysis; format: functional; settings: dose 2.0 µg/ml
Candida albicans [28] = experiment: Antifungal activity against Candida albicans SC5314 assessed as inhibition of fungal growth at 0.25 ug/ml incubated for 48 hrs by M27-A3 based microdilution method relative to control; format: functional
Candida albicans [29] = experiment: Antifungal activity against Candida albicans SC5314 assessed as inhibition of fungal growth at 1 ug/ml incubated for 48 hrs by M27-A3 based microdilution method relative to control; format: functional
Candida albicans [30] = experiment: In vivo antifungal activity against Candida albicans SC5314 infected in Galleria mellonella larvae assessed as survival of larvae by measuring health score index at 16 ug/ml administered 1 hr prior to infection measured within 5 days by Hematoxylin and eosin staining; format: functional, organism-based; settings: dose 16.0 µg/ml, time 5.0 day
Candida albicans [31] = experiment: Antifungal activity against Candida albicans SC5314 assessed as inhibition of fungal growth at 1 ug/ml incubated for 18 hrs by M27-A3 based microdilution method relative to control; format: functional

In the case of `O=C1CN=C(c2ccccc2Br)c2cc(F)ccc2N1CCCn1nnc(-c2ccccc2Cl)n1`, the Activity (Candida albicans [1]) is reported as “Active”, the Activity (Candida albicans [2]) is reported as “Active” and the fold change (FC) (Candida albicans [3]) is reported as 4. The Activity (Vero) was “Toxic”, the Activity [4] was 7% and the Activity (Candida albicans [5]) was 3.7%. For the same molecule, the Activity (Candida albicans [6]) was “Active”, the inhibition at 0.125 µg/mL (Candida albicans [7]) was 99.3% and the Activity (Candida albicans [8]) was “Active”. For the same molecule, the Activity (Candida albicans [9]) was 81.37%, the Activity [10] was “Non-Toxic” and the MIC (Candida albicans [11]) was 64 µg/mL (≈ 116 µM). For the same molecule, the inhibition at 2 µg/mL (Candida albicans [12]) was 100%, the inhibition at 0.03125 µg/mL (Candida albicans [13]) was 100% and the Activity (Candida albicans [14]) was “Active”. The Activity (Candida albicans [15]) was “Active”, the Activity [16] was “Non-Toxic” and the inhibition at 8 µg/mL (Candida albicans [17]) was 99.1%. The Activity (Candida albicans [18]) was “Active”, the Activity (Candida albicans [19]) was “Active” and the inhibition at 4 µg/mL (Candida albicans [20]) was 99.3%. For the same molecule, the inhibition at 16 µg/mL (Candida albicans [21]) was 100%, the Activity (Candida albicans [22]) was “Active” and the inhibition at 0.25 µg/mL (Candida albicans [23]) was 100%. For the same molecule, the Activity (Candida tropicalis) was “Dde”, the Activity (Candida albicans [24]) was “Dde” and the inhibition at 0.5 µg/mL (Candida albicans [25]) was 99.2%. For the same molecule, the inhibition at 2 µg/mL (Candida albicans [26]) was 100%, the Activity (Candida albicans [27]) was “Active” and the inhibition at 0.25 µg/mL (Candida albicans [28]) was 100%. For the same molecule, the inhibition at 1 µg/mL (Candida albicans [29]) was 99.2%, the Activity (Candida albicans [30]) was “Active” and the inhibition at 1 µg/mL (Candida albicans [31]) was 99.1%.
